Data published in US10597388B2, “Pyridazinone herbicides” (FMC CORPORATION, priority 2014, dated 2020).

Tests used:
Type in all cases: in vivo
[1] = tested on: morningglory (Ipomoea coccinea); test: Test C greenhouse herbicide test, pre- and postemergence
Procedure, shortened: (§1)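 Percent-control ratings (0 none, 100 complete) came from visual comparison with controls held alongside in the greenhouse for 13–15 d. Treatments covered soil application at sowing and foliar application to young plants 2–18 cm tall.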

[2] = tested on: blackgrass (Alopecurus myosuroides); test: as above
Procedure, shortened: as §1

[3] = tested on: crabgrass, large (large crabgrass, Digitaria sanguinalis); test: as above
Procedure, shortened: as §1

[4] = tested on: nutsedge, yellow (yellow nutsedge, Cyperus esculentus); test: as above
Procedure, shortened: as §1

[5] = tested on: oilseed rape (Brassica napus); test: as above
Procedure, shortened: as §1

[6] = tested on: foxtail, giant (giant foxtail, Setaria faberii); test: as above; details: Postemergence
Procedure, shortened: as §1

[7] = tested on: barnyardgrass (Echinochloa crus-galli); test: as above
Procedure, shortened: as §1

[8] = tested on: waterhemp (common waterhemp, Amaranthus rudis); test: as above
Procedure, shortened: as §1

corn (Zea mays) = test: as above
Procedure, shortened: as §1

[9] = tested on: johnsongrass (Sorghum halepense); test: as above
Procedure, shortened: as §1

[10] = tested on: pigweed (Amaranthus retroflexus); test: as above
Procedure, shortened: as §1

[11] = tested on: wheat (winter wheat, Triticum aestivum); test: as above
Procedure, shortened: as §1

[12] = tested on: velvetleaf (Abutilon theophrasti); test: as above
Procedure, shortened: as §1

[13] = tested on: lambsquarters (Chenopodium album); test: as above
Procedure, shortened: as §1

[14] = tested on: oat, wild (wild oat, Avena fatua); test: Test C greenhouse herbicide test, postemergence; details: Postemergence
Procedure, shortened: (§2)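 Test chemicals were applied postemergence to greenhouse plants at the 1- to 4-leaf stage (2–18 cm tall) growing in peat/vermiculite medium. After 13–15 d, injury was rated visually against untreated controls on a 0–100 scale (0 = no effect, 100 = complete control).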

kochia (Kochia scoparia) = test: Test C greenhouse herbicide test, postemergence; details: Postemergence
Procedure, shortened: as §2

[15] = Postemergence, 31 g ai/ha, scale 0 to 100 (0 no effect, 100 complete control)
[16] = Postemergence, 125 g ai/ha, scale 0 to 100, 0 is no effect, 100 is complete control
[17] = Postemergence, 250 g ai/ha, scale 0 to 100, 0 no effect, 100 complete control, 13 to 15 d
[18] = Preemergence, 31 g ai/ha, scale 0 to 100, 0 is no effect, 100 is complete control
[19] = Preemergence, 62 g ai/ha, scale 0 to 100, 0 is no effect, 100 is complete control
[20] = Preemergence, 125 g ai/ha, scale 0 to 100, 0 is no effect, 100 is complete control
[21] = Preemergence, 250 g ai/ha, scale 0 to 100 (0 no effect, 100 complete control)
[22] = postemergence, 62 g ai/ha, scale 0 to 100, 0 no effect, 100 complete control
[23] = 31 g ai/ha, scale 0 to 100 (0 no effect, 100 complete control)
[24] = 125 g ai/ha, scale 0 to 100, 0 is no effect, 100 is complete control
[25] = 250 g ai/ha, scale 0 to 100, 0 no effect, 100 complete control, 13 to 15 d

CCC(=O)Oc1c(Cl)nn(C)c(=O)c1-c1c(C)sc2ccc(Cl)cc12 [Compound 111]
Plant response rating, Morningglory [1, 15]: 100 | Plant response rating, Morningglory [1, 16]: 100 | Plant response rating, Morningglory [1, 17]: 100 | Plant response rating, Morningglory [1, 18]: 50 | Plant response rating, Morningglory [1, 19]: 70 | Plant response rating, Morningglory [1, 20]: 95 | Morningglory plant response rating [1, 21]: 98 | Plant response rating, Blackgrass [2, 15]: 0 | Plant response rating, Blackgrass [2, 16]: 20 | Plant response rating, Blackgrass [2, 17]: 35 | Plant response rating, Blackgrass [2, 18]: 0 | Plant response rating, Blackgrass [2, 19]: 5 | Plant response rating, Blackgrass [2, 20]: 5 | Blackgrass plant response rating [2, 21]: 20 | Blackgrass plant response rating [2, 22]: 5 | Plant response rating, Crabgrass, Large [3, 15]: 10 | Plant response rating, Crabgrass, Large [3, 16]: 25 | Plant response rating, Crabgrass, Large [3, 17]: 25 | Plant response rating, Crabgrass, Large [3, 18]: 5 | Plant response rating, Crabgrass, Large [3, 19]: 5 | Plant response rating, Crabgrass, Large [3, 20]: 85 | Crabgrass, Large plant response rating [3, 21]: 80 | Crabgrass, Large plant response rating [3, 22]: 20 | Plant response rating, Nutsedge, Yellow [4, 15]: 35 | Plant response rating, Nutsedge, Yellow [4, 16]: 65 | Plant response rating, Nutsedge, Yellow [4, 17]: 75 | Plant response rating, Nutsedge, Yellow [4, 18]: 0 | Plant response rating, Nutsedge, Yellow [4, 19]: 20 | Plant response rating, Nutsedge, Yellow [4, 20]: 75 | Nutsedge, Yellow plant response rating [4, 21]: 90 | Plant response rating, Oilseed Rape [5, 15]: 80 | Plant response rating, Oilseed Rape [5, 16]: 95 | Plant response rating, Oilseed Rape [5, 17]: 100 | Plant response rating, Oilseed Rape [5, 18]: 0 | Plant response rating, Oilseed Rape [5, 19]: 98 | Plant response rating, Oilseed Rape [5, 20]: 100 | Oilseed Rape plant response rating [5, 21]: 100 | Plant response rating, Foxtail, Giant [6, 23]: 15 | Plant response rating, Foxtail, Giant [6, 24]: 70 | Plant response rating, Foxtail, Giant [6, 25]: 85 | Plant response rating, Barnyardgrass [7, 15]: 10 | Plant response rating, Barnyardgrass [7, 16]: 45 | Plant response rating, Barnyardgrass [7, 17]: 40 | Plant response rating, Barnyardgrass [7, 18]: 10 | Plant response rating, Barnyardgrass [7, 19]: 20 | Plant response rating, Barnyardgrass [7, 20]: 55 | Barnyardgrass plant response rating [7, 21]: 85 | Barnyardgrass plant response rating [7, 22]: 30 | Plant response rating, Waterhemp [8, 15]: 40 | Plant response rating, Waterhemp [8, 16]: 55 | Plant response rating, Waterhemp [8, 17]: 70 | Plant response rating, Waterhemp [8, 18]: 50 | Plant response rating, Waterhemp [8, 19]: 65 | Plant response rating, Waterhemp [8, 20]: 75 | Waterhemp plant response rating [8, 21]: 85 | Plant response rating, Corn (corn (Zea mays); [15]): 5 | Plant response rating, Corn (corn (Zea mays); [16]): 15 | Plant response rating, Corn (corn (Zea mays); [17]): 10 | Plant response rating, Corn (corn (Zea mays); [18]): 0 | Plant response rating, Corn (corn (Zea mays); [19]): 0 | Plant response rating, Corn (corn (Zea mays); [20]): 0 | Corn plant response rating (corn (Zea mays); [21]): 15 | Corn plant response rating (corn (Zea mays); [22]): 10 | Plant response rating, Johnsongrass [9, 15]: 10 | Plant response rating, Johnsongrass [9, 16]: 15 | Plant response rating, Johnsongrass [9, 17]: 10 | Plant response rating, Johnsongrass [9, 18]: 0 | Plant response rating, Johnsongrass [9, 19]: 0 | Plant response rating, Johnsongrass [9, 20]: 0 | Johnsongrass plant response rating [9, 21]: 20 | Plant response rating, Pigweed [10, 15]: 85 | Plant response rating, Pigweed [10, 16]: 90 | Plant response rating, Pigweed [10, 17]: 98 | Plant response rating, Pigweed [10, 18]: 98 | Plant response rating, Pigweed [10, 19]: 90 | Plant response rating, Pigweed [10, 20]: 98 | Pigweed plant response rating [10, 21]: 100 | Plant response rating, Wheat [11, 15]: 10 | Plant response rating, Wheat [11, 16]: 15 | Plant response rating, Wheat [11, 17]: 25 | Plant response rating, Wheat [11, 18]: 0 | Plant response rating, Wheat [11, 19]: 5 | Plant response rating, Wheat [11, 20]: 20 | Wheat plant response rating [11, 21]: 40 | Plant response rating, Velvetleaf [12, 15]: 40 | Plant response rating, Velvetleaf [12, 16]: 98 | Plant response rating, Velvetleaf [12, 17]: 90 | Plant response rating, Velvetleaf [12, 18]: 65 | Plant response rating, Velvetleaf [12, 19]: 70 | Plant response rating, Velvetleaf [12, 20]: 95 | Velvetleaf plant response rating [12, 21]: 100 | Plant response rating, Lambsquarters [13, 15]: 90 | Plant response rating, Lambsquarters [13, 16]: 100 | Plant response rating, Lambsquarters [13, 17]: 100 | Plant response rating, Lambsquarters [13, 18]: 90 | Plant response rating, Lambsquarters [13, 19]: 95 | Plant response rating, Lambsquarters [13, 20]: 90 | Lambsquarters plant response rating [13, 21]: 95 | Plant response rating, Oat, Wild [14, 23]: 55 | Plant response rating, Oat, Wild [14, 24]: 90 | Plant response rating, Oat, Wild [14, 25]: 98 | Plant response rating, Kochia (kochia (Kochia scoparia); [23]): 80 | Plant response rating, Kochia (kochia (Kochia scoparia); [24]): 90 | Plant response rating, Kochia (kochia (Kochia scoparia); [25]): 95
